The text below walks through data of paper PMC11078827, “Characterization and functional evidence for Orf2 of Streptomyces sp. 139 as a novel dipeptidase E” (Applied Microbiology and Biotechnology, 2024).

The Km is the substrate concentration at which the rate is half of its maximum. As usually defined, the kcat is the maximal rate divided by the concentration of active sites.

Series [1] deals with T1, Orf2 (Streptomyces tendae, UniProt A0ABX5ZPB3, D147A).
T1 construct: gene F3L20_11885; full-length orf2 (744 bp) in pET30a(+), His-tagged (mutants in pET28a), E. coli BL21(DE3), Ni-NTA
Kind of series: absorbance at […] nm, activity assay. The class given is biochemical. The note with it: 50 mM imidazole pH 7.5, 40 °C; substrate of the standard assay, not named again for the mutants.

The target in series [2] is T2, Orf2 (Streptomyces tendae, UniProt A0ABX5ZPB3, D198A).
T2 construct: gene F3L20_11885; full-length orf2 (744 bp) in pET30a(+), His-tagged (mutants in pET28a), E. coli BL21(DE3), Ni-NTA
As to the kind of experiment: absorbance at […] nm, activity assay. Format: biochemical. The note with it: 50 mM imidazole pH 7.5, 40 °C; substrate of the standard assay, not named again for the mutants.

Series [3] deals with T3, Orf2 (Streptomyces tendae, UniProt A0ABX5ZPB3, H170A).
T3 construct: gene F3L20_11885; full-length orf2 (744 bp) in pET30a(+), His-tagged (mutants in pET28a), E. coli BL21(DE3), Ni-NTA
Kind of series: absorbance at […] nm, activity assay. The note with it: 50 mM imidazole pH 7.5, 40 °C; substrate of the standard assay, not named again for the mutants. Format: biochemical.

Series [4] has as its target T4, Orf2 (Streptomyces tendae, UniProt A0ABX5ZPB3, S134A).
T4 construct: gene F3L20_11885; full-length orf2 (744 bp) in pET30a(+), His-tagged (mutants in pET28a), E. coli BL21(DE3), Ni-NTA
Kind of series: absorbance at […] nm, activity assay. Format: biochemical. The conditions noted are these: 50 mM imidazole pH 7.5, 40 °C; substrate of the standard assay, not named again for the mutants.

Substrate in the series “purified protein”: N[C@@H](CC(=O)O)C(=O)Nc1ccc([N+](=O)[O-])cc1
As to the kind of experiment: purified protein. The class given is biochemical, Streptomyces tendae. The conditions noted are these: 50 mM imidazole pH 7.5, 40 °C, 10 min, substrate 3.91-500 μM, hydrolysis of chromogenic substrate.

T2 sequence (A0ABX5ZPB3 entry or part of it D198A): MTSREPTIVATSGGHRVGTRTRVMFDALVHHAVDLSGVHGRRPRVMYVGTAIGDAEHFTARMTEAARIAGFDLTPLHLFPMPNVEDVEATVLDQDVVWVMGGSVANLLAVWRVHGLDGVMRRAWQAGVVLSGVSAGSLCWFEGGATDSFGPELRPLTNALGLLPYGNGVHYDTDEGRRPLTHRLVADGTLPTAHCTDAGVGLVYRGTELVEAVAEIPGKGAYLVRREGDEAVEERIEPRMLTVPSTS
T3 sequence (A0ABX5ZPB3 entry or part of it H170A): as the sequence (A0ABX5ZPB3 entry or part of it D198A) above, with H170A, A198D counted along it
T4 sequence (A0ABX5ZPB3 entry or part of it S134A): as the sequence (A0ABX5ZPB3 entry or part of it D198A) above, with S134A, A198D counted along it
T1 sequence (A0ABX5ZPB3 entry or part of it D147A): as the sequence (A0ABX5ZPB3 entry or part of it D198A) above, with D147A, A198D counted along it

On to `N[C@@H](CC(=O)O)C(=O)Nc1ccc([N+](=O)[O-])cc1` [Asp-ρNA], for which the “absorbance at 405 nm, activity assay” value on Orf2 [1], on Orf2 [2], on Orf2 [3] and at Orf2 [4] was “all of these mutant proteins lost their activity (data not shown)” each time.

B1: Orf2 (Streptomyces tendae) (protein)
chain: MTSREPTIVATSGGHRVGTRTRVMFDALVHHAVDLSGVHGRRPRVMYVGTAIGDAEHFTARMTEAARIAGFDLTPLHLFPMPNVEDVEATVLDQDVVWVMGGSVANLLAVWRVHGLDGVMRRAWQAGVVLSGVSAGSLCWFEGGATDSFGPELRPLTNALGLLPYGNGVHYDTDEGRRPLTHRLVADGTLPTAHCTDDGVGLVYRGTELVEAVAEIPGKGAYLVRREGDEAVEERIEPRMLTVPSTS
notes: full-length orf2 (744 bp) in pET30a(+), His-tagged (mutants in pET28a), E. coli BL21(DE3), Ni-NTA
With B1, in “purified protein”, the Km is 1709 µM and the turnover number (kcat) came to 5.628 s⁻¹.
